{"source": "paper PMC10897015", "about": "“Investigation of anti-nociceptive, anti-inflammatory potential and ADMET studies of pure compounds isolated from Isodon rugosus Wall. ex Benth” (Frontiers in Pharmacology, 2024)", "key": {"5-LOX": {"target": "T1, 5-LOX (Glycine max, UniProt P08170)", "T1 sequence (P08170 1-839)": "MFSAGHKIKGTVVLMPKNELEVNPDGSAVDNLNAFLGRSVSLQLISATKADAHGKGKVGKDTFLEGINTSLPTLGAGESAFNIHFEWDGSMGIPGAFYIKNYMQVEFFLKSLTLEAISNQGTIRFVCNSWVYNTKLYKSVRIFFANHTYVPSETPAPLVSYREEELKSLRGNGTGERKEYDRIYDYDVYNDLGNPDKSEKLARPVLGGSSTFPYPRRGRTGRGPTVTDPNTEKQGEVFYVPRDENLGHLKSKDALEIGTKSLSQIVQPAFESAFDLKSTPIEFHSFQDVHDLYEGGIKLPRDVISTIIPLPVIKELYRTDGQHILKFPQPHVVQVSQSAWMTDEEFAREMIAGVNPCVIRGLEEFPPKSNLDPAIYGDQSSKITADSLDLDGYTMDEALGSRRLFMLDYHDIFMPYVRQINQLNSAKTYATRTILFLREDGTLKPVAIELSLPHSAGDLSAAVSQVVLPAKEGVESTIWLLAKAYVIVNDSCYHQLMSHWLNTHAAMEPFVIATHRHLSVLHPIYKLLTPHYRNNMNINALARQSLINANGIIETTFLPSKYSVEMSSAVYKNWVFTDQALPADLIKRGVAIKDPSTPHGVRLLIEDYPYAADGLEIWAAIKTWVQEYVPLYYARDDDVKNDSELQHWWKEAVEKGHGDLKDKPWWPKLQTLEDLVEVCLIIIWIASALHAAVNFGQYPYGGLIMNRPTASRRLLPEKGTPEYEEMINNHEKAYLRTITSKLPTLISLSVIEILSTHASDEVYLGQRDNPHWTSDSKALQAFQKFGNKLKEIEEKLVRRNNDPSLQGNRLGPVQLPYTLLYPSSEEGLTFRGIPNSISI", "experiment": "Lipoxygenase (5-LOX) inhibitory activity", "format": "biochemical", "conditions": "for inhibition at 62.5 µg/mL: read-out: % inhibition 5-LOX (mean ± SEM), 62.5 µg/ml; for inhibition at 250 µg/mL: read-out: % inhibition 5-LOX (mean ± SEM), 250 µg/ml; for inhibition at 500 µg/mL: read-out: % inhibition 5-LOX (mean ± SEM), 500 µg/ml; for inhibition at 1000 µg/mL: read-out: % inhibition 5-LOX (mean ± SEM), 1000 µg/ml", "method": "The enzyme solution with a concentration of 10,000 U/ml was prepared. […] A solution (80 mM) of linoleic acid (substrate) was made. Likewise, a 50 mM phosphate buffer solution with a pH of 6.3 was prepared. The substrate, enzyme, and buffer were combined in equal proportions, each in a 2 ml volume. […] The inhibition percentage was determined by comparing the absorbance of the test samples with that of the positive control."}, "Swiss albino mice [1]": {"tested_on": "Swiss albino mice", "experiment": "Acetic acid-induced writhing test", "format": "in vivo", "conditions": "for Writhes, individual values: single animals; for % analgesic activity (writhing inhibition) / Mean writhes: oral", "method": "An anti-nociceptive assessment was performed on Swiss albino mice of both sexes, sourced from the National Institute of Health, Islamabad, Pakistan. […] Mice of either sex were divided into different groups, with five mice in each group. The test samples were carefully administered orally, with doses of 250, 500, 1000, and 2000 mg/kg.\nI. rugosus was evaluated for its analgesic potential through an acetic acid-induced writhing test. Oral administration of the test samples was carried out using specified doses. After 30 min of interval, 10 ml/kg of acetic acid (0.6%) was injected into the mice. Group I served as the control and received 0.5% Tween-80 (3 ml/kg), group II received diclofenac sodium (10 mg/kg), and groups III and IV received test compounds. The count of writhes was recorded between 5 and 30 min, following the i/p injection of acetic acid ([Franzotti et al., 2000])."}, "Swiss albino mice [2]": {"tested_on": "Swiss albino mice", "experiment": "Formalin test with opioid receptor involvement", "format": "in vivo", "conditions": "for formalin induced pain, licking time, individual values: single animals", "method": "An anti-nociceptive assessment was performed on Swiss albino mice of both sexes, sourced from the National Institute of Health, Islamabad, Pakistan. […] Mice of either sex were divided into different groups, with five mice in each group. […]\nThe analgesic activity of I. rugosus was assessed through a formalin-induced licking test. The test samples were administered orally at specified doses."}, "[3]": {"conditions": "first phase, compounds 50 mg/kg, Mor 5 mg/kg, Nal 1 mg/kg"}, "[4]": {"conditions": "second phase, compounds 50 mg/kg, Mor 5 mg/kg, Nal 1 mg/kg"}}, "note": "Several values for one entry are separate records, joined by “and”; a condition that tells them apart may be missing. Identical values can stand only once. Marks after values point to notes of the source that are not given here."}
{"smiles": "O=C(O)C=Cc1ccc(O)c(O)c1", "note": "[Compound 1, 3,4-dihydroxy-cinnamic acid]", "values": [{"measurement": "inhibition at 62.5 µg/mL", "setting": "5-LOX", "result": "59.4 ± 0.65", "unit": "%"}, {"measurement": "inhibition at 250 µg/mL", "setting": "5-LOX", "result": "66.9 ± 1.04", "unit": "%"}, {"measurement": "inhibition at 500 µg/mL", "setting": "5-LOX", "result": "71.8 ± 0.55", "unit": "%"}, {"measurement": "inhibition at 1000 µg/mL", "setting": "5-LOX", "result": "77 ± 1.49", "unit": "%"}, {"measurement": "Writhes, individual values", "setting": "Swiss albino mice [1]; 10mg, listed as Comp 1", "result": "60 and 58.9 and 55.1"}, {"measurement": "Writhes, individual values", "setting": "Swiss albino mice [1]; 20mg, listed as Comp 1", "result": "50.1 and 48.2 and 49.71"}, {"measurement": "Writhes, individual values", "setting": "Swiss albino mice [1]; 25mg, listed as Comp 1", "result": "45.64 and 46.56 and 47.8"}, {"measurement": "Writhes, individual values", "setting": "Swiss albino mice [1]; 50mg, listed as Comp 1", "result": "22.1 and 23.29 and 24.51"}, {"measurement": "% analgesic activity (writhing inhibition)", "setting": "Swiss albino mice [1]; dose 10 mg/kg", "result": "05.10% and 05.10^ns %"}, {"measurement": "% analgesic activity (writhing inhibition)", "setting": "Swiss albino mice [1]; dose 20 mg/kg", "result": "19.88% and 19.88^ns %"}, {"measurement": "Mean writhes", "setting": "Swiss albino mice [1]; dose 20 mg/kg", "result": "49.33 ± 0.87"}, {"measurement": "Mean writhes", "setting": "Swiss albino mice [1]; dose 20 mg/kg, listed as Comp 1, 20 mg/kg", "result": 49.3367}, {"measurement": "% analgesic activity (writhing inhibition)", "setting": "Swiss albino mice [1]; dose 25 mg/kg", "result": 24.78, "unit": "%"}, {"measurement": "Mean writhes", "setting": "Swiss albino mice [1]; dose 25 mg/kg", "result": "46.67 ± 0.87"}, {"measurement": "Mean writhes", "setting": "Swiss albino mice [1]; dose 25 mg/kg, listed as Comp 1, 25 mg/kg", "result": 46.6667}, {"measurement": "% analgesic activity (writhing inhibition)", "setting": "Swiss albino mice [1]; dose 50 mg/kg", "result": "62% and 61.90%"}, {"measurement": "Mean writhes", "setting": "Swiss albino mice [1]; dose 50 mg/kg", "result": "23.30 ± 0.62"}, {"measurement": "Mean writhes", "setting": "Swiss albino mice [1]; dose 50 mg/kg, listed as Comp 1, 50 mg/kg", "result": 23.3}, {"measurement": "formalin induced pain, licking time, individual values", "setting": "Swiss albino mice [2]; 0-5 minutes, listed as Comp 1", "result": "16.3 and 17.41 and 18.2"}, {"measurement": "formalin induced pain, licking time, individual values", "setting": "Swiss albino mice [2]; 15-30 minutes, listed as Comp 1", "result": "27.57 and 28.5 and 29.36"}, {"measurement": "Total time spent in licking 0–5 min", "setting": "Swiss albino mice [2]; [3]", "result": "17.30 ± 0.77", "unit": "s"}, {"measurement": "Total time spent in licking, % inhibition (0–5 min)", "setting": "Swiss albino mice [2]; [3]", "result": 69.45, "unit": "%"}, {"measurement": "Total time spent in licking 0–5 min", "setting": "Swiss albino mice [2]; first phase, compounds 50 mg/kg, Mor 5 mg/kg, Nal 1 mg/kg, listed as Comp 1", "result": 17.3033, "unit": "s"}, {"measurement": "Total time spent in licking 15–30 min", "setting": "Swiss albino mice [2]; [4]", "result": "28.48 ± 0.58", "unit": "s"}, {"measurement": "Total time spent in licking, % inhibition (15–30 min)", "setting": "Swiss albino mice [2]; [4]", "result": "63.97^*** %"}, {"measurement": "Total time spent in licking 15–30 min", "setting": "Swiss albino mice [2]; second phase, compounds 50 mg/kg, Mor 5 mg/kg, Nal 1 mg/kg, listed as Comp 1", "result": 28.4767, "unit": "s"}]}
{"smiles": "O=C(CCc1ccc(O)cc1)c1c(O)cc(O)cc1O", "note": "[Compound 2, 2-4-4-6-tetrahydroxy-dihydrochalcone]", "values": [{"measurement": "inhibition at 62.5 µg/mL", "setting": "5-LOX", "result": "21.1 ± 0.9", "unit": "%"}, {"measurement": "inhibition at 250 µg/mL", "setting": "5-LOX", "result": "31.1 ± 0.2", "unit": "%"}, {"measurement": "inhibition at 500 µg/mL", "setting": "5-LOX", "result": "36.7 ± 0.67", "unit": "%"}, {"measurement": "inhibition at 1000 µg/mL", "setting": "5-LOX", "result": "41.43 ± 0.38", "unit": "%"}, {"measurement": "Writhes, individual values", "setting": "Swiss albino mice [1]; 10mg, listed as Comp 2", "result": "59.2 and 60.82 and 60.05"}, {"measurement": "Writhes, individual values", "setting": "Swiss albino mice [1]; 20mg, listed as Comp 2", "result": "55.1 and 54.26 and 56.7"}, {"measurement": "Writhes, individual values", "setting": "Swiss albino mice [1]; 25mg, listed as Comp 2", "result": "49.8 and 50.8 and 49.1"}, {"measurement": "Writhes, individual values", "setting": "Swiss albino mice [1]; 50mg, listed as Comp 2", "result": "41.02 and 43.67 and 40.12"}, {"measurement": "% analgesic activity (writhing inhibition)", "setting": "Swiss albino mice [1]; dose 10 mg/kg", "result": "1.86^ns %"}, {"measurement": "% analgesic activity (writhing inhibition)", "setting": "Swiss albino mice [1]; dose 10 mg/kg, listed as compound 2, 10 mg/kg", "result": "01.86", "unit": "%"}, {"measurement": "Mean writhes", "setting": "Swiss albino mice [1]; dose 10 mg/kg, writhes counted 5-30 min after acetic acid, 10 mg/kg", "result": "60.02 ± 0.90"}, {"measurement": "Mean writhes", "setting": "Swiss albino mice [1]; dose 10 mg/kg, writhes counted 5-30 min after acetic acid, listed as Comp 2, 10 mg/kg", "result": 60.0233}, {"measurement": "% analgesic activity (writhing inhibition)", "setting": "Swiss albino mice [1]; dose 20 mg/kg", "result": "9.49^ns %"}, {"measurement": "Mean writhes", "setting": "Swiss albino mice [1]; dose 20 mg/kg", "result": "55.35 ± 0.87"}, {"measurement": "Mean writhes", "setting": "Swiss albino mice [1]; dose 20 mg/kg, listed as Comp 2, 20 mg/kg", "result": 55.3533}, {"measurement": "% analgesic activity (writhing inhibition)", "setting": "Swiss albino mice [1]; dose 25 mg/kg", "result": "18.41^* %"}, {"measurement": "Mean writhes", "setting": "Swiss albino mice [1]; dose 25 mg/kg", "result": "49.90 ± 0.20"}, {"measurement": "Mean writhes", "setting": "Swiss albino mice [1]; dose 25 mg/kg, listed as Comp 2, 25 mg/kg", "result": 49.9}, {"measurement": "% analgesic activity (writhing inhibition)", "setting": "Swiss albino mice [1]; dose 50 mg/kg", "result": "31.98^*** %"}, {"measurement": "Mean writhes", "setting": "Swiss albino mice [1]; dose 50 mg/kg", "result": "41.60 ± 1.24"}, {"measurement": "Mean writhes", "setting": "Swiss albino mice [1]; dose 50 mg/kg, listed as Comp 2, 50 mg/kg", "result": 41.6033}, {"measurement": "formalin induced pain, licking time, individual values", "setting": "Swiss albino mice [2]; 0-5 minutes, listed as Comp 2", "result": "51.46 and 50.12 and 53.09"}, {"measurement": "formalin induced pain, licking time, individual values", "setting": "Swiss albino mice [2]; 15-30 minutes, listed as Comp 2", "result": "66.34 and 68.12 and 69.02"}, {"measurement": "Total time spent in licking 0–5 min", "setting": "Swiss albino mice [2]; [3]", "result": "51.55 ± 0.99", "unit": "s"}, {"measurement": "Total time spent in licking 0–5 min", "setting": "Swiss albino mice [2]; first phase, compounds 50 mg/kg, Mor 5 mg/kg, Nal 1 mg/kg, listed as Comp 2", "result": 51.5567, "unit": "s"}, {"measurement": "Total time spent in licking 15–30 min", "setting": "Swiss albino mice [2]; [4]", "result": "67.83 ± 0.57", "unit": "s"}, {"measurement": "Total time spent in licking 15–30 min", "setting": "Swiss albino mice [2]; second phase, compounds 50 mg/kg, Mor 5 mg/kg, Nal 1 mg/kg, listed as Comp 2", "result": 67.8267, "unit": "s"}]}
